Measured values as given in patent US20260041744A1, “Methods for Treating Pompe Disease” (Amicus Therapeutics, Inc., priority 2022, published 2026).
Entries after “also recorded” stand apart in the source; their conditions may differ.

What was measured:
[1] = tested on: adults with Pompe disease; experiment: Study ATB200-02: MIP, MEP and other pulmonary measures; format: in vivo, human
Excerpt: Mean CFBL in % predicted sitting FVC was generally stable (CFBL±3% points) for up to 48 months of follow-up in the ERT-experienced cohorts (FIG. 47A, Table 26B), with improvements (CFBL >3% points) at Months 48 in 66.7% of ERT-experienced and 75% of ERT-naïve patients.
In the ERT-naïve cohort, mean CFBL in % predicted sitting FVC improved at 3 months and then remained generally stable up to 48 months of follow up (FIG. 47B, Table 26B), except for one patient who experienced a large drop in % predicted sitting FVC at Month 21, which returned to previous levels at the following visit at Month 24. Mean % predicted sitting FVC improvements were more marked in the ERT-naïve cohort compared with the ERT-experienced cohort over 48 months of follow up (FIG. 47B, Table 26B). […] Percent predicted sitting FVC data were supported by similar outcomes in other pulmonary measures including % predicted maximum inspiratory pressure (MIP) and MEP.

CIMPR = CIMPR (Homo sapiens, UniProt P11717); experiment: CIMPR Overlay Assay (far-western blot); format: binding
Description: The CIMPR Overlay Assay is a variation on a far-western blot where proteins are separated on an SDS-PAGE, transferred to a nitrocellulose membrane, and incubated with purified CIMPR in the place of a primary antibody as in a conventional western blot. Binding of CIMPR to M6P-containing glycans on rhGAA proteins is then visualized by an anti-CIMPR antibody.

[2] = tested on: adult subjects with late-onset Pompe disease (LOPD); experiment: Study ATB200-03 (PROPEL): PROMIS-Fatigue; format: in vivo, human; conditions: for CHG to Week 52 in PROMIS-Fatigue total score, LS Mean: MMRM, actual time point of assessments, decrease indicates improvement; for PROMIS-Fatigue Short Form 8a total score CHG, LS means (SE): Week 52, ANCOVA
Description: The test for the primary endpoint was conducted first at the 1-sided 0.025 significance level, and if significant, the ordered key secondary endpoints were similarly tested at the same significance level. The statistical significance of the key secondary endpoints was interpreted following a hierarchical testing order, each at the 1-sided alpha level of 0.025. […] Primary analyses of efficacy were performed using the mixed-effect model for repeated measures (MMRM) for 6MWD in Intent-to-treat Observed Population (ITT) that includes all available, observed data without any missing data imputation (ITT-OBS) and analysis of covariance (ANCOVA) for all other endpoints in the Intent-to-Treat-Last Observation Carried Forward (ITT-LOCF) Population. A nonparametric randomization based ANCOVA was specified as the first sensitivity analysis for 6MWD and FVC. […] For the purposes of data presentation in this document, 2-sided p-values are reported hereafter, except as otherwise noted.

[3] = Ambulatory ERT-experienced, 12 months
[4] = Ambulatory ERT-experienced, 24 months
[5] = Ambulatory ERT-experienced, 36 months
[6] = Ambulatory ERT-experienced, 48 months
[7] = Ambulatory ERT-naïve, 12 months
[8] = Ambulatory ERT-naïve, 24 months
[9] = Ambulatory ERT-naïve, 36 months
[10] = Ambulatory ERT-naïve, 48 months
[11] = Non-ambulatory ERT-experienced, 12 months
[12] = Non-ambulatory ERT-experienced, 24 months
[13] = Non-ambulatory ERT-experienced, 36 months
[14] = Non-ambulatory ERT-experienced, 48 months
[15] = Week 52-LOCF, ERT-experienced Population
[16] = Week 52-LOCF, ERT-naïve Population excluding Subject 4005-2511
[17] = Week 52-LOCF, ITT excluding Subject 4005-2511

Chain of CIMPR (P11717 41-2491, species assumed): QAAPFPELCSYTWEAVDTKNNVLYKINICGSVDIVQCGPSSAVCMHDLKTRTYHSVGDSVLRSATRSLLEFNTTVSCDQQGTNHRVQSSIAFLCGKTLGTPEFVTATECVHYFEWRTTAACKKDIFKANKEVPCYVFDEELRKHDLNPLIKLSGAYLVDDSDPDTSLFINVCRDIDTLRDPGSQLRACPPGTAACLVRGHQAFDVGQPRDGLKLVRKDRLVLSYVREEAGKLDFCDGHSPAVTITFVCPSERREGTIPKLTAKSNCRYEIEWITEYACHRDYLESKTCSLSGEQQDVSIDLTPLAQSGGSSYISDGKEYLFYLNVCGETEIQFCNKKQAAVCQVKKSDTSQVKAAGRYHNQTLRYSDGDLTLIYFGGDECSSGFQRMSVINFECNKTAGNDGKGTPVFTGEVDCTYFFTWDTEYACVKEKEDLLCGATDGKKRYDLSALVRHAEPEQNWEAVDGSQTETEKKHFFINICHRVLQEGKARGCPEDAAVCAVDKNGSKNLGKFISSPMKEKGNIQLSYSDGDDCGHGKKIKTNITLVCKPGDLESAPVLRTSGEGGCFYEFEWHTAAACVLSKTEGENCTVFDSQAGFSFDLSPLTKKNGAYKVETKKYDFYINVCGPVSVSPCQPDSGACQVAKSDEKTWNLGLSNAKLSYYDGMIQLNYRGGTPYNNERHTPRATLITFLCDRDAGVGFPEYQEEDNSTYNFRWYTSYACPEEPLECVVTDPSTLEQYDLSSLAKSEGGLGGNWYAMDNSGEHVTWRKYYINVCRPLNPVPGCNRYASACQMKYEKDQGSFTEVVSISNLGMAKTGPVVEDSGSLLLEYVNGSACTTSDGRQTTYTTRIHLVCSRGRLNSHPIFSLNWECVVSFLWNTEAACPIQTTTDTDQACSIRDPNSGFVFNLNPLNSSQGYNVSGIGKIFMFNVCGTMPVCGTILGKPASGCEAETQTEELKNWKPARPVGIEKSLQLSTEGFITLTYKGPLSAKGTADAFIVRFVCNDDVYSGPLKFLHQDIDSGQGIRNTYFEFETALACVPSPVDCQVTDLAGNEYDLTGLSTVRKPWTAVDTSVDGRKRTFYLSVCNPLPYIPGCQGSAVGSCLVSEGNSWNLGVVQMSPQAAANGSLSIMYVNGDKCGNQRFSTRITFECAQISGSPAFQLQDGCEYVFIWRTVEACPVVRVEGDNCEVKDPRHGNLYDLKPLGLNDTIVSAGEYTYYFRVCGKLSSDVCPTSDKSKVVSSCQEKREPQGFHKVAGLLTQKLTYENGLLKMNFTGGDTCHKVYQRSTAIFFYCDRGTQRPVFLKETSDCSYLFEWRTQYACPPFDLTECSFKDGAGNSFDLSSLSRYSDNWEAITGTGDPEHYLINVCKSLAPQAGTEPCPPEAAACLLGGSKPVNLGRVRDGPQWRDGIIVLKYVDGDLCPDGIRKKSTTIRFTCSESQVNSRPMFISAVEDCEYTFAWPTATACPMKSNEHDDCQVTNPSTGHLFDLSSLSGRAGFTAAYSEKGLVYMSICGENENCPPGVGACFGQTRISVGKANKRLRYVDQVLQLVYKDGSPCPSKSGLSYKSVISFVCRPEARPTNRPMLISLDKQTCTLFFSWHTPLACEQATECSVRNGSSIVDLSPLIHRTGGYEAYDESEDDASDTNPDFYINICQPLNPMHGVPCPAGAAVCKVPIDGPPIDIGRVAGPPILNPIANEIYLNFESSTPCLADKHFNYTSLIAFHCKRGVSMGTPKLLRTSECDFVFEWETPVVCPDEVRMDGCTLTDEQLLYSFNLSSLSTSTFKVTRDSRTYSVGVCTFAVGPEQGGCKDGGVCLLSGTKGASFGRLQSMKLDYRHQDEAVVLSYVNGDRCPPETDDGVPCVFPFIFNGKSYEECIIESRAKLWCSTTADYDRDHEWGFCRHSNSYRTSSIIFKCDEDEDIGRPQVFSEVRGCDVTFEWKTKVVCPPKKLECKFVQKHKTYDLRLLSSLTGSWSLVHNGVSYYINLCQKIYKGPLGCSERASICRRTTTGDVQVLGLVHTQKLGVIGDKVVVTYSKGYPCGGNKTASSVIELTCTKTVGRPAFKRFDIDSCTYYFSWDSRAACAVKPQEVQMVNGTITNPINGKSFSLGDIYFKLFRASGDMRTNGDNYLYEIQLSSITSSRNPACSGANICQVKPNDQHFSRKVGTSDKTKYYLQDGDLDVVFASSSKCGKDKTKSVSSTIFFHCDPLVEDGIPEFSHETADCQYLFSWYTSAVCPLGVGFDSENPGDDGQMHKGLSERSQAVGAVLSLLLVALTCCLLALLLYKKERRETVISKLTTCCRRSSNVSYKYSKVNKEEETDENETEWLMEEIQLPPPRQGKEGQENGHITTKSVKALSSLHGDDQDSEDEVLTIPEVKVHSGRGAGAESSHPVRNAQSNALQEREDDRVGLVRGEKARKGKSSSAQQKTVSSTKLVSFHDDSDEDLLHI

With “ATB200/miglustat: two-component therapy: cipaglucosidase alfa (ATB200) administered in conjunction with miglustat (AT2221), a stabilizer of cipaglucosidase alfa” the “MEP / MIP outcome” value ([1]; 12, 24, 36, and 48 months, listed as cipaglucosidase alfa/miglustat) was “maximum expiratory pressure (MEP) results that also improved numerically from baseline; also recorded: MIP improved numerically in ERT-naïve patients”, the “Percent predicted Sniff Nasal Inspiratory Pressure, CFBL mean” value [1, 3] was 2.1% and the “Percent predicted maximum expiratory pressure, CFBL mean” value [1, 3] was 9.4%. For the same substance, the “Percent predicted maximum inspiratory pressure, CFBL mean” value [1, 3] was 3.7%, the “Percent predicted Sniff Nasal Inspiratory Pressure, CFBL mean” value [1, 4] was 5.3% and the “Percent predicted maximum expiratory pressure, CFBL mean” value [1, 4] was 16.8%. For the same substance, the “Percent predicted maximum inspiratory pressure, CFBL mean” value [1, 4] was 4.5%, the “Percent predicted Sniff Nasal Inspiratory Pressure, CFBL mean” value [1, 5] was −2.3% and the “Percent predicted maximum expiratory pressure, CFBL mean” value [1, 5] was 13.7%. For the same substance, the “Percent predicted maximum inspiratory pressure, CFBL mean” value [1, 5] was −0.5%, the “Percent predicted Sniff Nasal Inspiratory Pressure, CFBL mean” value [1, 6] was 7.3% and the “Percent predicted maximum expiratory pressure, CFBL mean” value [1, 6] was 17.9%. The “Percent predicted maximum inspiratory pressure, CFBL mean” value [1, 6] was −3.8%, the “Percent predicted Sniff Nasal Inspiratory Pressure, CFBL mean” value [1, 7] was 9.4% and the “Percent predicted maximum expiratory pressure, CFBL mean” value [1, 7] was 11.6%. The “Percent predicted maximum inspiratory pressure, CFBL mean” value [1, 7] was 8.0%, the “Percent predicted Sniff Nasal Inspiratory Pressure, CFBL mean” value [1, 8] was 8.1% and the “Percent predicted maximum expiratory pressure, CFBL mean” value [1, 8] was 17.9%. For the same substance, the “Percent predicted maximum inspiratory pressure, CFBL mean” value [1, 8] was 18.7%, the “Percent predicted Sniff Nasal Inspiratory Pressure, CFBL mean” value [1, 9] was 4.3% and the “Percent predicted maximum expiratory pressure, CFBL mean” value [1, 9] was 14.2%. For the same substance, the “Percent predicted maximum inspiratory pressure, CFBL mean” value [1, 9] was 12.5%, the “Percent predicted Sniff Nasal Inspiratory Pressure, CFBL mean” value [1, 10] was 4.6% and the “Percent predicted maximum expiratory pressure, CFBL mean” value [1, 10] was 24.8%. For the same substance, the “Percent predicted maximum inspiratory pressure, CFBL mean” value [1, 10] was 16.1%, the “Percent predicted Sniff Nasal Inspiratory Pressure, CFBL mean” value [1, 11] was 4.5% and the “Percent predicted maximum expiratory pressure, CFBL mean” value [1, 11] was 10.6%. For the same substance, the “Percent predicted maximum inspiratory pressure, CFBL mean” value [1, 11] was 1.1%, the “Percent predicted Sniff Nasal Inspiratory Pressure, CFBL mean” value [1, 12] was 7.8% and the “Percent predicted maximum expiratory pressure, CFBL mean” value [1, 12] was 21.1%. The “Percent predicted maximum inspiratory pressure, CFBL mean” value [1, 12] was 3.3%, the “Percent predicted Sniff Nasal Inspiratory Pressure, CFBL mean” value [1, 13] was −0.4% and the “Percent predicted maximum expiratory pressure, CFBL mean” value [1, 13] was 11.5%. The “Percent predicted maximum inspiratory pressure, CFBL mean” value [1, 13] was −0.4%, the “Percent predicted Sniff Nasal Inspiratory Pressure, CFBL mean” value [1, 14] was −4.1% and the “Percent predicted maximum expiratory pressure, CFBL mean” value [1, 14] was 21.0%. For the same substance, the “Percent predicted maximum inspiratory pressure, CFBL mean” value [1, 14] was 3.9%.
For alglucosidase alfa [reference compound], the “CIMPR binding in overlay assay” value (CIMPR) was “a band with a much lower intensity”, the “PROMIS-Fatigue Short Form 8a Total Score Absolute Value, Median” value ([2]; Baseline, ITT, ERT-naïve Population excluding Subject 4005-2511) was 24.00 and the “PROMIS-Fatigue Short Form 8a Total Score Absolute Value, Mean” value ([2]; Baseline, ITT, ERT-naïve Population excluding Subject 4005-2511, score 8 to 40, lower = less fatigue) was 24.13. The “mean (SD) change in PROMIS-Fatigue total score from baseline to Week 52” value (shortened to “mean (SD) change”) ([2]; ERT-experienced Population) was −0.5 (5.72), the “mean (SD) change” value ([2]; ERT-naïve excluding Subject 4005-2511) was −5.4 (6.61) and the “Change in PROMIS-Fatigue total score baseline to Week 52, LS means (SE) from ANCOVA” value ([2]; ITT-LOCF, ERT-naïve Population excluding Subject 4005-2511) was −6.28 (2.757). The “CHG to Week 52 in PROMIS-Fatigue total score, LS Mean” value ([2]; ITT-OBS excluding Subject 4005-2511 (overall)) was −1.7, the “CHG to Week 52 in PROMIS-Fatigue total score, LS Mean” value ([2]; ITT-OBS excluding Subject 4005-2511, ERT-naïve Subjects) was −4.9 and the “CHG to Week 52 in PROMIS-Fatigue total score, LS Mean” value ([2]; ITT-OBS, ERT-experienced Subjects) was −0.7. The “PROMIS-Fatigue Short Form 8a Total Score Absolute Value, Mean” value [2, 15] was 19.87, the “PROMIS-Fatigue Short Form 8a Total Score Absolute Value, Median” value [2, 15] was 18.00 and the “PROMIS-Fatigue Short Form 8a Total Score CHG, Mean” value [2, 15] was −0.50. The “PROMIS-Fatigue Short Form 8a total score CHG, Median” value [2, 15] was 0.50, the “PROMIS-Fatigue Short Form 8a Total Score Absolute Value, Mean” value [2, 16] was 16.43 and the “PROMIS-Fatigue Short Form 8a Total Score Absolute Value, Median” value [2, 16] was 15.00. The “PROMIS-Fatigue Short Form 8a Total Score CHG (change from baseline), Mean” value [2, 16] was −7.70, the “PROMIS-Fatigue Short Form 8a Total Score CHG (change from baseline), Median” value [2, 16] was −6.90 and the “PROMIS-Fatigue Short Form 8a Total Score Absolute Value, Median” value [2, 17] was 18.00. For the same substance, the “PROMIS-Fatigue Short Form 8a total score Absolute Value, Mean (SD)” value [2, 17] was 19.41 (6.735), the “PROMIS-Fatigue Short Form 8a total score CHG, Mean (SD)” value [2, 17] was −1.67 (6.623) and the “PROMIS-Fatigue Short Form 8a total score CHG, Median” value [2, 17] was −1.00. The “PROMIS-Fatigue Short Form 8a total score CHG, LS means (SE)” value ([2]; ITT-LOCF excluding Subject 4005-2511) was −1.94 (0.901), the “PROMIS-Fatigue Short Form 8a total score CHG, LS means (SE)” value ([2]; ITT-LOCF, ERT-experienced Population) was −0.79 (0.953) and the “mean (SD) change” value ([2]; overall population) was -1.9 (0.90).
